Among the data in PubChem BioAssay (NCI) are TGI and GI50 values, retold here.

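Cells were grown in 96-well plates and exposed to each compound for 48 hours at five concentrations; endpoints were interpolated linearly between bracketing concentrations, or set to the highest concentration if not reached. The concentration for 50% growth inhibition is given as GI50. TGI is the concentration that stops growth completely.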 Where a SMILES comes first, the peptide text is derived from it. The star is where a group is joined. Boc = CC(C)(C)OC(=O)*; OBn = c1ccc(CO*)cc1 A value given as a limit tells only on which side of the number the result lay.

What all share (assay): NCI anticancer screen, dose series, 48 h
Assay [1] concerns KM12 colon.
Assay [2] has as its system HL-60(TB) leukemia.
Assay [3] deals with M14 melanoma.
Assay [4] deals with SR leukemia.
Assay [5] concerns MCF7 breast.
In assay [6] the test system is HOP-92 NSCLC.
Assay [7] has as its system NCI/ADR-RES ovarian.
Assay [8] deals with SK-MEL-2 melanoma.
For assay [9], the system named is SN12C renal.
Assay [10] has as its system OVCAR-3 ovarian.

`CC(C)(C)C1(COC(=O)c2ccc(N)cc2)COC1`: the TGI in [1], in assay [2], in assay [3], in [4], in assay [5] and in assay [6] was above 100 µM in each case. In addition, the TGI in assay [7], in [8], in assay [9] and in [10] was above 100 µM each time.

On to `Cc1cn(CC2=NCC(C)(C)N2)c(=O)[nH]c1=O`, for which the TGI in assay [3], in assay [4], in [5], in [6], in [7] and in assay [8] was above 100 µM throughout. The molecule further came in with a TGI in assay [9] above 100 µM.

With `CC[C@H](C)[C@H]1NC(=O)[C@@H](NC(=O)[C@@H](CC(C)C)N(C)CC2CCCN2C(=O)C(C)=O)[C@@H](C)OC(=O)[C@H](Cc2ccc(OC)cc2)N(C)C(=O)C2CCCN2C(=O)[C@H](CC(C)C)NC(=O)[C@@H](C)C(=O)[C@H](C(C)C)OC(=O)C[C@@H]1O` (stereo partly specified), the TGI in assay [1] stood at 0.0105 µM; in assay [2], 0.021 µM; in [3], 0.00972 µM; in assay [4] it was 0.00471 µM; in [5], 0.00747 µM; in assay [6], 0.0292 µM. The TGI in assay [7] came out at 0.231 µM; in assay [8] it was 0.00703 µM; in [9], 0.0301 µM; in assay [10], 0.0151 µM.

`O=C1COc2ccc([N+](=O)[O-])cc2C(=O)C1`: the TGI in assay [1], in [2], in assay [3], in [4], in assay [5] and in assay [6] was above 10 µM throughout. The TGI in [7], in assay [8], in assay [9] and in [10] was above 10 µM each time.

Take `CCCCCCCCCCCCCCCCCCNc1ccn(C2OC(COP(=O)(O)OCC3OC(n4cc(C)c(=O)[nH]c4=O)CC3N=[N+]=[N-])C(O)C2O)c(=O)n1` (stereo unspecified): the TGI in assay [1] is 35 µM; in assay [3] it was 36.1 µM; in assay [4] it was 80 µM; in [5], above 100 µM; in assay [6], above 100 µM; in assay [7] it was 50 µM. Besides, the TGI in assay [8] is 39.8 µM; in assay [9], 48.1 µM; in [10] it was above 100 µM.

With `O=C1/C(=C/c2ccccc2[N+](=O)[O-])N=C(c2ccccc2)N1C1Nc2cc3c(cc2S1)NC(N1C(=O)/C(=C/c2ccccc2[N+](=O)[O-])N=C1c1ccccc1)S3` (stereo unspecified), the TGI is above 100 µM in assay [1]; 96.2 µM in [2]; above 100 µM in assay [3]; 90.3 µM in [4]; above 100 µM in assay [5]; above 100 µM in assay [6]. The values for the TGI in assay [7], in assay [8] and in assay [10] were 97.4 µM, above 100 µM and above 100 µM, respectively.

As to `Cc1cc(-c2nc3ccccc3s2)ccc1NC(=O)[C@H](C)N`, the TGI in assay [1] is 31.1 µM; in assay [3], 19.2 µM; in [4], 13.4 µM; in [5] it was 20.4 µM; in assay [6] it was 35.5 µM; in assay [7], 38.5 µM. Also, the TGI in [8] was found to be 34.3 µM; in assay [9], 27.9 µM; in assay [10], 24.7 µM.

`O=c1c(C=Nc2ccc([N+](=O)[O-])cc2)c(O)n(-c2ccccc2)c(=O)n1-c1ccccc1`: the TGI in [1], in assay [3], in assay [4], in assay [5], in assay [6] and in assay [7] was above 100 µM in each case. The TGI in assay [8], in [9] and in [10] was above 100 µM each time.

For `OC1(c2cc3ccccc3s2)CCCCC1`, the TGI in assay [1], in [2], in [3], in assay [4], in assay [5] and in assay [6] was above 100 µM throughout. The TGI in assay [7], in [9] and in assay [10] was above 100 µM in each case.

Turning to `CCCCOP1(=O)C=C(C)C(=C(Cl)Cl)C(C)=C1` (stereo unspecified), the TGI in assay [1] amounted to 4.45 µM; in [2] it was 8.26 µM; in [3] it was 54.8 µM; in [4], 29.9 µM; in assay [6], 4.88 µM; in [8] it was 5.11 µM. The values for the TGI in [9] and in assay [10] were 34.8 µM and 39.1 µM, respectively.

As to `NCCNc1cccc2ccccc12`, the TGI in assay [1], in [2], in assay [3], in assay [4], in assay [6] and in assay [8] was above 100 µM each time. Besides, the TGI in [9] and in [10] was above 100 µM throughout.

As to `CSc1c(C#N)c(=O)[nH]c2n[nH]c(C)c12`, the TGI in [1], in assay [2], in assay [3], in assay [4], in assay [5] and in assay [7] was above 100 µM each time. Moreover, the TGI in [8], in assay [9] and in [10] was above 100 µM each time.

With `COC(=O)n1c(=O)n(-c2ccccc2)c(=O)n1C(=O)OC`, the TGI in assay [1], in [2], in [3], in [4], in [5] and in assay [7] was above 100 µM throughout. Also, the TGI in assay [8], in assay [9] and in assay [10] was above 100 µM each time.

`O=C(CCCCCCCCC(=O)N1C(=O)CC(=O)N(c2cccc(Cl)c2)C1=S)N1C(=O)CC(=O)N(c2cccc(Cl)c2)C1=S`: the TGI in assay [1] was above 100 µM; in [3], above 100 µM; in assay [4], 67.8 µM; in assay [5], above 100 µM; in assay [6], 51.1 µM; in [7], 96.9 µM. For the same molecule, the TGI is above 100 µM in assay [8], above 100 µM in assay [9] and 65 µM in assay [10].

For the molecule `Fc1ccc(N=NN2CCCC2)cc1`, the TGI in assay [1], in [2], in [3], in assay [4], in [5] and in assay [6] was above 100 µM throughout. Also, the TGI in [8], in assay [9] and in assay [10] was above 100 µM in each case.

Consider `COP(=O)(OC)C(Cc1c[nH]c2ccccc12)NC(=O)OCc1ccccc1` (stereo unspecified), for which the TGI in assay [2], in [3], in [4], in assay [5], in [6] and in [7] was above 100 µM each time. Further, the TGI in [8], in assay [9] and in assay [10] was above 100 µM in each case.

As for `[N-]=[N+]=CC(=O)OCC1SCCCS1`, the TGI in assay [1], in assay [2], in assay [4], in assay [5], in assay [6] and in [8] was above 100 µM throughout. The TGI in [9] and in [10] was above 100 µM in each case.

In the case of `COC(OC)C1OC(CO)C(n2ccc(N)nc2=O)C1O` (stereo unspecified), the TGI in [1], in assay [3], in assay [4], in [5], in assay [6] and in assay [7] was above 100 µM throughout. Also, the TGI in assay [8], in [9] and in [10] was above 100 µM in each case.

As for `C/C(=N\NC(N)=S)C(CN(CC(C)C)CC(C)C)C(=O)Nc1ccc(C)cc1C` (stereo unspecified), the TGI in assay [1], in assay [2], in assay [3], in assay [4], in [6] and in assay [8] was above 100 µM throughout. Besides, the TGI in assay [9] and in assay [10] was above 100 µM in each case.

`Cc1cc(S(=O)(=O)O)c(NC(=O)C(=O)C2C=CCS2(=O)=O)cc1Cl` (stereo unspecified): the TGI in assay [1], in assay [2], in assay [3], in assay [4], in assay [6] and in assay [8] was above 100 µM throughout. Further, the TGI in [9] and in assay [10] was above 100 µM throughout.

In the case of `C=CCNC(=O)NC1=CSC2=NC(=O)C3(NN12)c1ccccc1-c1ccccc13`, the TGI in assay [1], in assay [2], in assay [3], in assay [4], in assay [5] and in [6] was above 10 µM each time. Further, the TGI in assay [7] and in assay [9] was above 10 µM throughout.

On to `CC(NC(=O)C(NC(=O)OC(C)(C)C)C(C)C)C(=O)N1CCCC1C(=O)NCC(=O)NC(C(=O)NCC(=O)OCc1ccccc1)C(C)C` (stereo unspecified) (Boc-VAPGVG-OBn; configuration not given here), for which the TGI in [2], in assay [3], in assay [4], in [5], in assay [6] and in [7] was above 100 µM in each case. Moreover, the TGI in assay [8], in assay [9] and in [10] was above 100 µM in each case.

On to `O=[N+]([O-])c1ccc(N=Nc2c(O)c(S(=O)(=O)O)cc3cc(S(=O)(=O)O)ccc23)cc1`, for which the TGI in [2], in [3], in assay [4], in assay [5], in assay [6] and in assay [7] was above 100 µM throughout. The TGI in assay [8], in assay [9] and in [10] was above 100 µM throughout.

For `COC(=O)c1cc(C#N)[nH]c1-c1ccc(C)s1`, the TGI in assay [1] was above 100 µM; in assay [3], above 100 µM; in [4], above 100 µM; in [6], 82.1 µM; in [7], above 100 µM; in assay [9], above 100 µM. The TGI in assay [10] is above 100 µM.

Turning to `COc1ccc(-c2c(N)n(-c3cccc(C(=O)O)c3)c(=O)c3cc([N+](=O)[O-])ccc23)cc1`, the TGI in [1], in [2], in assay [3], in assay [4], in assay [5] and in [7] was above 100 µM throughout. For the same molecule, the TGI in assay [8] and in assay [10] was above 100 µM in each case.

Turning to `O=C(NC1CCN(Cc2ccccc2)CC1)c1cc2nc(-c3ccc(Cl)s3)cc(C(F)(F)F)n2n1`, the GI50 in assay [4] was 2.13 µM; in assay [5] it was 8.98 µM; in assay [6] it was 15.4 µM; in assay [7], above 100 µM; in assay [9] it was above 100 µM; in assay [10], 42.4 µM. In addition, the TGI in [4] is 4.97 µM; in assay [5], above 100 µM; in [6] it was above 100 µM; in [7] it was above 100 µM; in assay [9], above 100 µM; in [10], above 100 µM.

For the molecule `Cc1ccc(N2CCc3c(C)c(C#N)c4nc5ccccc5n4c32)cc1`, the TGI in [2] is above 100 µM; in assay [4], above 100 µM; in assay [5], above 100 µM; in assay [6] it was 57.5 µM; in [7], above 100 µM; in assay [8], above 100 µM. In addition, the TGI in assay [9] and in [10] was above 100 µM throughout.

As to `COc1ccc(N=N/C(=N/NC(=O)c2ccccc2)c2ccc(N(CCC#N)CCC#N)cc2C)cc1`, the TGI in assay [1], in assay [2], in [3], in [4], in [5] and in assay [7] was above 100 µM in each case. In addition, the TGI in assay [8], in assay [9] and in [10] was above 100 µM in each case.
